Source: patent US20240425479A1, “HALO-SUBSTITUTED AMINO AZA-HETEROARYL COMPOUNDS AS INHIBITORS OF THE HAEMATOPOIETIC PROGENITOR KINASE 1 (HPK1)” (priority 2021, published 2024)

How the values were obtained:
[1] = target: T1, Recombinant (1-346) HPK1 (h) (Homo sapiens, UniProt Q92918); experiment: HPK1 human STE kinase enzymatic radiometric assay; format: biochemical; details: read-out: HPK1 IC50 nM Range
T1 construct: Recombinant (1-346) HPK1 (h) is incubated with 8 mM MOPS pH 7.0
T1 sequence (Q92918 1-346): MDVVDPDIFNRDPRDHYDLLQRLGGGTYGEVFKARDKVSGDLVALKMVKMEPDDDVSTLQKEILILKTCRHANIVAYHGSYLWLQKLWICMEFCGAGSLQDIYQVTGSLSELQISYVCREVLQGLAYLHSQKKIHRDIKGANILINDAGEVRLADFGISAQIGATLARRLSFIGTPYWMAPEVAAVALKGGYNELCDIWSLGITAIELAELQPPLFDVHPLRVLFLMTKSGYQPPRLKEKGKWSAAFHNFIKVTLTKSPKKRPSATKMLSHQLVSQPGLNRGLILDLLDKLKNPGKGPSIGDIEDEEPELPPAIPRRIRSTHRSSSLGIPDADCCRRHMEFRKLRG
Outline: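 Compounds in 3-fold, 9-point serial dilution; kinase (residues 1-346) phosphorylates myelin basic protein (0.33 mg/mL) using [gamma-33P]-ATP at pH 7.0 (MOPS, EDTA, Mg acetate) for 40 min, room temperature. Acid-quenched mixture filtered onto P30 mats; incorporated radioactivity read by scintillation counting.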

Lck (h) = Lck (h) (Homo sapiens, UniProt P06239); experiment: Lck human STE kinase enzymatic radiometric assay; format: biochemical; details: read-out: Lck IC50 nM Range
Sequence of Lck (h) (P06239 whole entry): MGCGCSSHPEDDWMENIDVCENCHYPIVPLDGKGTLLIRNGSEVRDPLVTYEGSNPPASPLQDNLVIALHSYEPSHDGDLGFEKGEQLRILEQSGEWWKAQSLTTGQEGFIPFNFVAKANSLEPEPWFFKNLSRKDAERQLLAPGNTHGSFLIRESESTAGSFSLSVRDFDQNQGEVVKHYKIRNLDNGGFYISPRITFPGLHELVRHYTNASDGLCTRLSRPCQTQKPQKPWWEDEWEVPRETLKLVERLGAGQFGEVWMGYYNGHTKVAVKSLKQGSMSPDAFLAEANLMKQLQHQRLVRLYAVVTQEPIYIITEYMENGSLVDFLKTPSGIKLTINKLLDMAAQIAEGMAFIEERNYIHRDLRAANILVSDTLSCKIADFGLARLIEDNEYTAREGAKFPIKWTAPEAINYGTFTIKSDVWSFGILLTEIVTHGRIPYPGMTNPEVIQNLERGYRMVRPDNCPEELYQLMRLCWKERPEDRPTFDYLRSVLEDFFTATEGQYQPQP

Question: How did the IC50 [1] turn out when `C[C@@H]1CN(c2ccc(-c3nc(-c4ccc5c(c4)C(F)(F)CNC5=O)c(N)nc3F)cc2CN(C)C)C[C@H](C)O1` [Example I-257, 6-(3-amino-6-(3-((dimethylamino)methyl)-4-((2R,6S)-2,6-dimethylmorpholino)phenyl)-5-fluoropyrazin-2-yl)-4,4-difluoro-3,4-dihydroisoquinolin-1(2H)-one] was run?
Answer: 0.1 to 10 nM

Question: What about the IC50 (Lck (h)) of the same compound?
Answer: > 1000 nM

Question: What does the source list for `COc1ccc(-c2nc(-c3ccc4c(=O)[nH]cc(F)c4c3)c(N)nc2F)cc1CN(C)C` [Example I-267, 6-(3-amino-6-(3-((dimethylamino)methyl)-4-methoxyphenyl)-5-fluoropyrazin-2-yl)-4-fluoroisoquinolin-1(2H)-one]?
Answer: IC50 [1]: 0.1 to 10 nM; IC50 (Lck (h)): > 1000 nM

Question: With `CC(C)S(=O)(=O)c1ccc(-c2nc(-c3ccc4c(=O)[nH]cc(F)c4c3)c(N)nc2F)cc1CN(C)C` [Example I-293, 6-(3-amino-6-(3-((dimethylamino)methyl)-4-(isopropylsulfonyl)phenyl)-5-fluoropyrazin-2-yl)-4-fluoroisoquinolin-1(2H)-one] as the compound, how does the IC50 [1] read?
Answer: 11 to 100 nM

Question: And the IC50 (Lck (h))?
Answer: > 1000 nM
